Results on 17 compounds are retold here after US5140009A (Tap Pharmaceuticals, Inc., priority 1990, dated 1992).

Structures are written as SMILES. Numbered stars: 1 amine (or outer) side, 2 acyl side, 3 side chain; on linkers, the order of the positions; unused ones are H or OH. Square brackets hold non-standard residues; d marks the D form. Peptide text beside a SMILES is read from it. * marks the point of attachment. Propanoyl(3-indol-3-yl) = O=C(CCc1c[nH]c2ccccc12)*; Propanoyl(3-(4-F-phenyl)) = O=C(CCc1ccc(F)cc1)*; Propanoyl(3-(4-Cl-Ph)) = O=C(CCc1ccc(Cl)cc1)*; Acetyl(2-naphthyl) = O=C(Cc1ccc2ccccc2c1)*; 1Nal = N[C@@H](Cc1cccc2ccccc12)C(=O)O; d1Nal = N[C@H](Cc1cccc2ccccc12)C(=O)O; d2Nal = N[C@H](Cc1ccc2ccccc2c1)C(=O)O; Lys(iPr) = CC(C)NCCCC[C@H](N)C(=O)O; NMeY = CN[C@@H](Cc1ccc(O)cc1)C(=O)O; dBta = N[C@H](Cc1csc2ccccc12)C(=O)O; Pyrazinecarbonyl = O=C(c1cnccn1)*; dCha = N[C@H](CC1CCCCC1)C(=O)O; NMeL = CN[C@@H](CC(C)C)C(=O)O; Nicotinoyl = O=C(c1cccnc1)*; X3 = O=C(CCc1ccc2ccccc2c1)*; dOrn = NCCC[C@@H](N)C(=O)O; Morpholide = C1CN(*)CCO1; X15 = O=C(Cc1ccc(O)cc1)*; PhAc = O=C(Cc1ccccc1)*; X2 = O=C(C=Cc1ccccc1)*; CO = O=C([*:1])[*:2]; Bn = c1ccc(C*)cc1; For = O=C*

One assay addresses T1, LHRH receptors (Rattus norvegicus, UniProt P30969).
T1 construct: Pituitary membranes containing LHRH receptors are prepared in batches from quick-frozen rat pituitaries; tissue Hilltop Labs; host or cells: rat pituitary membranes
T1 sequence (P30969 1-327): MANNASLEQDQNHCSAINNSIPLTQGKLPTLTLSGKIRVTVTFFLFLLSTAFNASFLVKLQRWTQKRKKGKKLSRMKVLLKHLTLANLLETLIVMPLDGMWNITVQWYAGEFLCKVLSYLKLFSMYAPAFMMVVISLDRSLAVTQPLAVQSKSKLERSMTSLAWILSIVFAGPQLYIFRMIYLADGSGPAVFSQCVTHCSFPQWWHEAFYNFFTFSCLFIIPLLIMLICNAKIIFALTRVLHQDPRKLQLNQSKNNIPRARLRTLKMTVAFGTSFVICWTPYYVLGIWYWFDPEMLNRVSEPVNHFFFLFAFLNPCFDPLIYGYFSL
The assay can be described thus: Receptor Binding (radioligand receptor binding assay). Particulars: table 3; rat pituitary membranes, radioiodinated [D-Leu^6 -des Gly^10 ]-LHRH ethyl amide 50 pM, 2 hours at 4° C.; read-out: Receptor Binding pkI (converted).
On to `CCNC(=O)[C@@H]1CCCN1C(=O)[C@H](CCCNC(=N)N)NC(=O)[C@H](CC(C)C)NC(=O)[C@@H](CC(C)C)NC(=O)[C@H](Cc1ccc(O)cc1)NC(=O)[C@H](CO)NC(=O)[C@H](Cc1c[nH]c2ccccc12)NC(=O)C=Cc1ccccc1` [Compound 63, (3-9)[N-Cinnamoyl-Trp^3 -D-Leu^6 -Pro^9 -NHEt]LHRH] (X2-WSY[dL]LRP-NHEt), for which the Ki is 50.1 nM.

With `CC(C)C[C@H](NC(=O)[C@@H](Cc1cn(C=O)c2ccccc12)NC(=O)[C@H](Cc1ccc(O)cc1)NC(=O)[C@H](CO)NC(=O)[C@@H](Cc1cn(C=O)c2ccccc12)NC(=O)CCc1ccc(F)cc1)C(=O)N[C@@H](CCCNC(=N)N)C(=O)N1CCC[C@H]1C(=O)N[C@H](C)C(N)=O` [Compound 123, N-3-(4-Fluorophenyl)propionyl-D-Trp-(N-indole-formyl)-Ser -Tyr-D-Trp(N-indole-formyl)-Leu-Arg-Pro-D-AlaNH2] ({Propanoyl(3-(4-F-phenyl))}-[dW](For)SY[dW](For)LRP[dA]-NH2), the Ki is 0.331 nM.

Regarding `CCNC(=O)[C@@H]1CCCN1C(=O)[C@H](CCCNC(=N)N)NC(=O)[C@H](CC(C)C)NC(=O)[C@@H](Cc1c[nH]c2ccccc12)NC(=O)[C@H](Cc1ccc(O)cc1)NC(=O)[C@H](CO)NC(=O)[C@@H](Cc1c[nH]c2ccccc12)NC(=O)[C@H](Cc1ccccc1)NC(=O)N1CCOCC1` [Compound 107, (2 9)[N-(N-alpha-Morpholinocarbonyl)-Phe^2 -D-Trp^3,6 -Pro^9 NHEt]LHRH] ({Morpholide-CO}-F[dW]SY[dW]LRP-NHEt), the Ki was 0.257 nM.

For `CCNC(=O)[C@@H]1CCCN1C(=O)[C@H](CCCNC(=N)N)NC(=O)[C@H](CC(C)C)NC(=O)[C@@H](Cc1c[nH]c2ccccc12)NC(=O)[C@H](Cc1ccc(O)cc1)NC(=O)[C@H](COCc1ccccc1)NC(=O)Cc1ccc2ccccc2c1` [Compound 12, (4-9)[N-(2-Naphthylacetyl)-Ser^4 (OBzl)-D-Trp^6 -Pro^9 -NHEt]LHRH] ({Acetyl(2-naphthyl)}-S(Bn)Y[dW]LRP-NHEt), the Ki is 1.23 nM.

For the compound `CCNC(=O)[C@@H]1CCCN1C(=O)[C@H](CCCNC(=N)N)NC(=O)[C@H](CC(C)C)NC(=O)[C@@H](Cc1c[nH]c2ccccc12)NC(=O)[C@H](Cc1ccc(O)cc1)NC(=O)[C@H](CO)NC(=O)Cc1ccccc1` [Compound 17, (4-9)[N-(Phenylacetyl)-Ser^4 -D-Trp^6 -Pro^9-NHEt] LHRH] (PhAc-SY[dW]LRP-NHEt), the Ki is 6.61 nM.

For `CCNC(=O)[C@@H]1CCCN1C(=O)[C@H](CCCN=C(N)N)NC(=O)[C@H](CC(C)C)NC(=O)[C@@H](Cc1c[nH]c2ccccc12)NC(=O)[C@H](Cc1ccc(O)cc1)NC(=O)[C@H](CO)NC(=O)[C@H](Cc1c[nH]c2ccccc12)NC(=O)Cc1ccc(O)cc1` [Compound 105, (3-9)[N-(4-Hydroxyphenyl)acetyl-Trp^3 -D -Trp^6 -Pro^9 NHEt]LHRH] (X15-WSY[dW]LRP-NHEt), the Ki was 0.562 nM.

In the case of `CCNC(=O)[C@@H]1CCCN1C(=O)[C@H](CCCNC(=N)N)NC(=O)[C@H](CC(C)C)NC(=O)[C@@H](Cc1c[nH]c2ccccc12)NC(=O)[C@H](Cc1ccc(O)cc1)NC(=O)[C@H](CO)NC(=O)[C@H](Cc1c[nH]c2ccccc12)NC(=O)[C@H](Cc1ccccc1)NC(=O)CCc1ccc2ccccc2c1` [Compound 133, N-3-(2-Naphthyl)propionyl-Phe-Trp-Ser-Tyr-D-Trp-Leu-Arg -Pro-NHEt] (X3-FWSY[dW]LRP-NHEt), the Ki is 1.45 nM.

As to `CCNC(=O)[C@@H]1CCCN1C(=O)[C@H](CCCNC(=N)N)NC(=O)[C@H](CC(C)C)N(C)C(=O)[C@@H](Cc1c[nH]c2ccccc12)NC(=O)[C@H](Cc1ccc(O)cc1)NC(=O)[C@H](CO)NC(=O)CCc1c[nH]c2ccccc12` [Compound 46, N-(3-(3-Indole)propionyl)Ser-Tyr-D-Trp-N-Me-Leu-Arg-Pro-NHEt] ({Propanoyl(3-indol-3-yl)}-SY[dW][NMeL]RP-NHEt), the Ki was 11 nM.

For `CCNC(=O)[C@@H]1CCCN1C(=O)[C@H](CCCN=C(N)N)NC(=O)[C@H](CC(C)C)NC(=O)[C@@H](Cc1c[nH]c2ccccc12)NC(=O)[C@H](Cc1ccc(O)cc1)NC(=O)[C@H](CO)NC(=O)[C@H](Cc1ccc(O)cc1)NC(=O)CCc1ccc(Cl)cc1` [Compound 87, (3-9)[N-(3-(4-Chlorophenyl)propionyl) -Tyr^3 -D-Trp^6 -Pro^9 NHEt]LHRH] ({Propanoyl(3-(4-Cl-Ph))}-YSY[dW]LRP-NHEt), the Ki is 0.129 nM.

The same assay, now with this note: table 4; rat pituitary membranes, radioligand 50 pM, 2 hours at 4° C.; read-out: Receptor Binding pkI (converted).
In the case of `CC(C)C[C@H](NC(=O)[C@@H](CCCCNC(=O)c1cccnc1)NC(=O)[C@H](Cc1ccc(O)cc1)N(C)C(=O)[C@H](CO)NC(=O)[C@@H](Cc1csc2ccccc12)NC(=O)CCc1ccc(F)cc1)C(=O)N[C@@H](CCCCNC(C)C)C(=O)N1CCC[C@H]1C(=O)N[C@H](C)C(N)=O` [Compound 253, (3-10)[N-(3-(4-Fluorophenyl)propionyl)-D-3-Bal^3 -NMeTyr^5 -D-Lys^6 (N-epsilon-nicotinyl)-Lys^8 (N-epsilon-isopropyl)-D-Ala^10]LHRH] ({Propanoyl(3-(4-F-phenyl))}-[dBta]S[NMeY][dK](Nicotinoyl)L[Lys(iPr)]P[dA]-NH2), the Ki was 0.00933 nM.

For `COc1ccc(C[C@H](NC(=O)[C@H](CO)NC(=O)[C@@H](Cc2cccc3ccccc23)NC(=O)CCc2ccc(F)cc2)C(=O)N[C@H](CCCCNC(=O)c2cnccn2)C(=O)N[C@@H](CC(C)C)C(=O)N[C@@H](CCCCNC(C)C)C(=O)N2CCC[C@H]2C(=O)N[C@H](C)C(N)=O)cc1` [Compound 203, (3-10)[N-(3-(4-Fluorophenyl)propionyl)-D-1-Nal^3 -Tyr^5 (OMe)-D-Lys^6 (N-epsilon-2-carbonylpyrazinyl)-Lys^8 (N-epsilon-isopropyl)-D-Ala^10]LHRH] ({Propanoyl(3-(4-F-phenyl))}-[d1Nal]SY(Me)[dK](Pyrazinecarbonyl)L[Lys(iPr)]P[dA]-NH2), the Ki is 0.0209 nM.

Take `CC(C)C[C@H](NC(=O)[C@@H](Cc1c[nH]c2ccccc12)NC(=O)[C@H](Cc1ccc(O)cc1)NC(=O)[C@H](CO)NC(=O)[C@@H](Cc1c[nH]c2ccccc12)NC(=O)CCc1ccc(F)cc1)C(=O)N[C@@H](CCCNC(=N)N)C(=O)N1CCC[C@H]1C(=O)N[C@H](C)C(N)=O` [Compound 162, (3-10)[N-(3-(4-Fluorophenyl)propionyl)-D-Trp^3,6 -D-Ala^10]LHRH] ({Propanoyl(3-(4-F-phenyl))}-[dW]SY[dW]LRP[dA]-NH2): the Ki is 0.0105 nM.

In the case of `CC(C)C[C@H](NC(=O)[C@@H](CCCN)NC(=O)[C@H](Cc1ccc(O)cc1)N(C)C(=O)[C@H](CO)NC(=O)[C@@H](Cc1cccc2ccccc12)NC(=O)CCc1ccc(F)cc1)C(=O)N[C@@H](CCCNC(=N)N)C(=O)N1CCC[C@H]1C(=O)N[C@H](C)C(N)=O` [Compound 192, (3-10)[N-(3-(4-Fluorophenyl)propionyl)-D-1-Nal^3 -NMeTyr^5 -D-Orn^6 -D-Ala^10]LHRH] ({Propanoyl(3-(4-F-phenyl))}-[d1Nal]S[NMeY][dOrn]LRP[dA]-NH2), the Ki was 0.00676 nM.

Consider `CC(C)C[C@H](NC(=O)[C@@H](CO)NC(=O)[C@H](Cc1ccc(O)cc1)N(C)C(=O)[C@H](CO)NC(=O)[C@H](Cc1cccc2ccccc12)NC(=O)CCc1ccc(F)cc1)C(=O)N[C@@H](CCCNC(=N)N)C(=O)N1CCC[C@H]1C(=O)N[C@H](C)C(N)=O` [Compound 180, (3-10)[N-(3-(4-Fluorophenyl)propionyl)-1-Nal^3 -NMeTyr^5 -D-Ser^6 -D-Ala^10]LHRH] ({Propanoyl(3-(4-F-phenyl))}-[1Nal]S[NMeY][dS]LRP[dA]-NH2), for which the Ki is 0.0055 nM.

`CCNC(=O)[C@@H]1CCCN1C(=O)[C@H](CCCNC(=N)N)NC(=O)[C@H](CC(C)C)NC(=O)[C@@H](Cc1c[nH]c2ccccc12)NC(=O)[C@H](Cc1ccc(O)cc1)N(C)C(=O)[C@H](CO)NC(=O)[C@@H](Cc1cccc2ccccc12)NC(=O)CCc1ccc(F)cc1` [Compound 157, (3-9)[N-(3-(4-Fluorophenyl)propionyl)-D -1-Nal^3 -NMeTyr^5 -D-Trp^6 -Pro^9 NHEt]LHRH] ({Propanoyl(3-(4-F-phenyl))}-[d1Nal]S[NMeY][dW]LRP-NHEt): the Ki was 0.0479 nM.

In the case of `CC(C)C[C@H](NC(=O)[C@@H](CCCCN)NC(=O)[C@H](Cc1ccc(O)cc1)N(C)C(=O)[C@H](CO)NC(=O)[C@@H](Cc1ccc2ccccc2c1)NC(=O)CCc1ccc(F)cc1)C(=O)N[C@@H](CCCNC(=N)N)C(=O)N1CCC[C@H]1C(=O)N[C@H](C)C(N)=O` [Compound 186, (3-10)[N-(3-(4-Fluorophenyl)propionyl)-D-2-Nal^3 -NMeTyr^5 -D-Lys^6 -D-Ala^10]LHRH] ({Propanoyl(3-(4-F-phenyl))}-[d2Nal]S[NMeY][dK]LRP[dA]-NH2), the Ki was 0.0339 nM.

For the compound `CC(C)C[C@H](NC(=O)[C@@H](CCCCNC(=O)c1cccnc1)NC(=O)[C@H](Cc1ccc(O)cc1)N(C)C(=O)[C@H](CO)NC(=O)[C@@H](CC1CCCCC1)NC(=O)CCc1ccc(F)cc1)C(=O)N[C@@H](CCCCNC(C)C)C(=O)N1CCC[C@H]1C(=O)N[C@H](C)C(N)=O` [Compound 254, (3-10)[N-(3-(4-Fluorophenyl)propionyl)-D-Cha^3 -NMeTyr^5 -D-Lys^6 (N-epsilon-nicotinyl)-Lys^8 (N-epsilon-isopropyl)-D-Ala^10]LHRH] ({Propanoyl(3-(4-F-phenyl))}-[dCha]S[NMeY][dK](Nicotinoyl)L[Lys(iPr)]P[dA]-NH2), the Ki was 0.012 nM.
